Measurements: ChEMBL document CHEMBL2417410, “Selectivity data: assessment, predictions, concordance, and implications” (J Med Chem, 2013)

Tests used:
[1] = biological target: Cyclin-dependent kinase 9 (Homo sapiens, UniProt P50750)
[2] = biological target: Serine/threonine-protein kinase pim-1 (Homo sapiens, UniProt P11309); assay: Inhibition of PIM1 (unknown origin)
Sequence of Serine/threonine-protein kinase pim-1 (P11309 whole entry): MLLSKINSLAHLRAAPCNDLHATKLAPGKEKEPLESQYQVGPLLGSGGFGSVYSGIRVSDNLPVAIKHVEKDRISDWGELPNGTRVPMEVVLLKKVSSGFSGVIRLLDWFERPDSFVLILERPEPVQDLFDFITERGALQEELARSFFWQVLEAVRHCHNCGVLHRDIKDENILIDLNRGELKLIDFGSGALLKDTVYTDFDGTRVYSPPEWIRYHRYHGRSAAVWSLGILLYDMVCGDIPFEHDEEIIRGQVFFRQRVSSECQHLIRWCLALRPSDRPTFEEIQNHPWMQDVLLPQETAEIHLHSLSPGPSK

Sequence of Cyclin-dependent kinase 9 (P50750 whole entry): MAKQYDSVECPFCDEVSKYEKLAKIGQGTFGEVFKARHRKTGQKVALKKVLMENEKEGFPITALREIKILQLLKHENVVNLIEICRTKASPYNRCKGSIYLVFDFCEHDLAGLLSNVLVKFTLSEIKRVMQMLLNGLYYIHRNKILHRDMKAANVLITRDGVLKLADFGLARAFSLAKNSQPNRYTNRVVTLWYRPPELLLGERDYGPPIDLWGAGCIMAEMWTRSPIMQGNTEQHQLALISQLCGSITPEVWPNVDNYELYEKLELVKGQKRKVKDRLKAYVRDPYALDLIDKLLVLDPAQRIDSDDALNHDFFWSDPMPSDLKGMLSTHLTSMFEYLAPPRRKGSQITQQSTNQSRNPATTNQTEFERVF

Compound	IC50 [1] [nM]	IC50 [2] [nM]
Cc1n[nH]c2ccc(-c3cccnc3)cc12	631	
NC(=O)c1cc(-c2ccnc(N)n2)[nH]c1-c1ccc(Cl)cc1Cl	10	
CN1CCN(c2nc(C3=C(c4c[nH]c5ccccc45)C(=O)NC3=O)c3ccccc3n2)CC1 [SOTRASTAURIN]		50.1
